Test results taken from patent publication EP1649856A2, “Use of pimecrolimus for selective immunomodulation” (Novartis AG, priority 2001, dated 2002).

Key:
[1] = in vivo; parameters: species or system rats
Procedure: In another study designed to explore the differences between pimecrolimus and FK506 and to determine whether these differences might be associated with a different tissue distribution, the exposure to pimecrolimus and FK506 in various organs after oral administration were measured. Animals received 2 oral doses of 25 mg/kg in an interval of 2 hours. […] Pimecrolimus was found consistently to have a higher skinlblood concentration ratio than FK506 (2 hours: 7.3 vs. 2.8; 6 hours: 13 vs. 1.6; 24 hours: 36 vs. 6.0). The AUC0-24h in skin calculated for pimecrolimus was twice as high as with FK506.
These distribution characteristics are relevant not only for oral, but also for topical application, as the compound enters systemic circulation after permeation through the skin.

[2] = Pharmacokinetics after multiple oral administrations to psoriatic patients for 28 days; type: in vivo, human
Procedure: Table 4. Summary of Cmax and AUCτ Following Multiple Oral Administrations of Pimecrolimus to Psoriatic Patients for 28 Days
In this study pimecrolimus was rapidly absorbed with a median tmax across all the dose groups and collection days of between 0.8 and 2.0 hours. […] There was no effect of age or weight on the apparent clearance of pimecrolimus.

[3] = tested on: eosinophil influx into the lungs; assay: Aeroallergen induced eosinophil influx into the lungs of sensitized mice; type: in vivo; conditions: oral administration
Source text: Direct evidence on the efficacy on pimecrolimus in asthma is provided by studies showing the effect on lung eosinophilia rats. One study looked at the inhibitory effect of pimecrolimus on the aeroallergen induced eosinophil influx into the lungs of sensitized mice.

[4] = tested on: allergic contact dermatitis (ACD); assay: Mouse model of allergic contact dermatitis (ACD); type: in vivo; conditions: oral, same doses
[5] = Clinical study of oral pimecrolimus in psoriasis patients (efficacy and safety)
Procedure: A clinical study was initiated with an oral formulation of pimecrolimus to treat psoriatic patients. Pimecrolimus was evaluated as treatment for psoriasis using an oral dose of 60 mg (30 mg b.i.d) during a 4-week clinical study. The cohort included 10 patients; 8 received the treatment and 2 received a placebo.
The dose used in the study was 60 mg/day, given as 30 mg b.i.d. To make this dose the 20 mg tablets were cut in half using a special cutter (Tablettenteiler NR.96) so as to obtain 30 mg of pimecrolimus or a matched amount of placebo.

[6] = tested on: SCID mice reconstituted with CD4^+CD45RB^HI T cells; assay: SCID-IBD mouse model, delayed treatment of established IBD; type: in vivo; conditions: 100 mg/kg/day p.o. started after 7, 14 or 21 days, until 41 days
Procedure: In order to determine if pimecrolimus is also effective once IBD is established, SCID mice were treated with pimecrolimus at a dose level of 100 mg/kg/day at days 7, 14 or 21 following the transfer of the disease causing CD4^+ T cells. The study was terminated after 41 days, i.e., the mice were treated for 33, 26 and 19 days, respectively.
SCID mice were reconstituted with 2 x 10^5 CD4^+CD45RB^HI T cells and treatment with pimecrolimus (100 mg/kg/day p.o.) started after 7, 14 or 21 days and continued daily until 41 days. Treatment with the placebo formulation started after 7 days. BW was monitored once a week for the first 2 weeks and then twice weekly. Data are expressed as mean percent BW relative to the weight on day 0 ± s.e.m. for n = 9 (PBS), n = 8 (ASM(7d) & ASM(21d) and n = 7 (ASM(14d) and placebo) mice per group. PBS refers to the non-transferred mice which have been pooled with regard to percent BW values since no treatment dependent changes were found. p<0.01 relative to the placebo-treated group at 41 days.
SCID mice were reconstituted with 2 x 10^5 CD4^+CD45RB^HI T cells and treatment with pimecrolimus (100 mg/kg/day p.o.) started after 7, 14 or 21 days and continued daily until 41 days. Treatment with the placebo formulation started after 7 days. On day 41, mice were killed and serum kept for haptoglobin assay. Data are expressed as mean haptoglobin (mg/mL) ± s.e.m. for n = 9 (PBS), n = 8 (ASM(7d)) and n = 7 (ASM(14d), ASM(21d) and placebo) mice per group. […]
SCID mice were reconstituted with 2 x 10^5 CD4^+CD45RB^HI T cells and treatment with pimecrolimus (100 mg/kg/day p.o.) started after7, 14 or 21 days and continued daily until 41 days. […] Data are expressed as the mean neutrophil numbers, calculated from the percent positive cells and the total cell number per sample, ± s.e.m. for n mice (n in each bar) per group. p<0.05 calculated relative to the placebo-treated group.

[7] = type: in vitro ADME, human
Source text: Pimecrolimus, when applied topically, permeates less through human (and animal) skin than, for example, FK506 and corticosteroids by factors of 9 and 60-120, respectively, indicating a lower potential to enter the systemic circulation and thus to exert systemic side effects. As is well-known, glucocorticoids are non-selective agents and are therefore associated with many systemic actions and a wide variety of side effects, whether applied topically or systemically. This is in contrast to pimecrolimus.

[8] = 20 mg b.i.d. oral, Day 13, Mean ± SD, 18720 min
[9] = 20 mg b.i.d. oral, Day 28, Mean ± SD, 40320 min
[10] = human, blood, 5 mg q.d. oral, Day 1, Mean ± SD
[11] = human, blood, 5 mg q.d. oral, Day 13, Mean ± SD
[12] = human, blood, 5 mg q.d. oral, Day 28, Mean ± SD
[13] = human, blood, 10 mg q.d. oral, Day 1, Mean ± SD
[14] = human, blood, 10 mg q.d. oral, Day 28, Mean ± SD
[15] = human, blood, 20 mg q.d. oral, Day 13, Mean ± SD
[16] = human, blood, 20 mg q.d. oral, Day 28, Mean ± SD
[17] = human, blood, 30 mg b.i.d. oral, Day 1, Mean ± SD
[18] = human, blood, 30 mg b.i.d. oral, Day 13, Mean ± SD
[19] = human, blood, 30 mg b.i.d. oral, Day 28, Mean ± SD

CC[C@@H]1/C=C(\C)C[C@H](C)C[C@H](OC)[C@H]2O[C@@](O)(C(=O)C(=O)N3CCCC[C@H]3C(=O)O[C@H](/C(C)=C/[C@@H]3CC[C@H](Cl)[C@H](OC)C3)[C@H](C)[C@@H](O)CC1=O)[C@H](C)C[C@@H]2OC [pimecrolimus, 33-epichloro-33-desoxy-ascomycin]
AUC0-24h in skin compared with FK506 ([1]; 2 oral doses of 25 mg/kg): twice as high | exposure in all other tissues, including blood, lymph nodes and kidney, compared with FK506 ([1]; 2 oral doses of 25 mg/kg): lower | Kp at 2 h ([1]; rat, skin, 2 oral doses of 25 mg/kg in an interval of 2 hours, 2 hours after the last dosing, read-out: skinlblood concentration ratio): 7.3 | Kp at 6 h ([1]; rat, skin, 2 oral doses of 25 mg/kg in an interval of 2 hours, 6 hours after the last dosing, read-out: skinlblood concentration ratio): 13 | Kp at 24 h ([1]; rat, skin, 2 oral doses of 25 mg/kg in an interval of 2 hours, 24 hours after the last dosing, read-out: skinlblood concentration ratio): 36 | AUCτ,b ([2]; 20 mg b.i.d. oral, Day 1, Mean ± SD, 1440 min): 139.9 ± 39.2 ng·h/mL | AUCτ,b [2, 8]: 259.6 ± 122.6 ng·h/mL | Cmax,b [2, 8]: 54.7 ± 36.3 ng/mL | AUCτ,b [2, 9]: 229.5 ± 90.9 ng·h/mL | Cmax,b [2, 9]: 41.7 ± 16.5 ng/mL | mean AUC at steady-state over 24 hours ([2]; 30 mg b.i.d., day 28, calculated assuming identical AUCτ for morning and evening doses): ~562 ng·h/mL | AUC at 24 h ([2]; human, blood, po, 30 mg b.i.d., day 13, calculated assuming identical AUCτ for morning and evening doses, read-out: mean AUC at steady-state over 24 hours): ~590 ng·h/mL | Tmax ([2]; human, blood, po, across all the dose groups and collection days, read-out: median tmax): 0.8 to 2 h | concentration at 504 h ([2]; human, blood, po, day 21 of the 30 mg BID dose schedule, read-out: highest median blood trough concentration): 18 ng/mL | half-life ([2]; human, blood, po, recorded after the final dose, read-out: terminal half-life): 50 to 100 h | AUC tau at 24 h [2, 10]: 23.3 ± 13 ng·h/mL | Cmax at 24 h [2, 10]: 8.7 ± 2.3 ng/mL | AUC tau at 312 h [2, 11]: 44.5 ± 18.2 ng·h/mL | Cmax at 312 h [2, 11]: 9.7 ± 2.5 ng/mL | AUC tau at 672 h [2, 12]: 35.5 ± 15.8 ng·h/mL | Cmax at 672 h [2, 12]: 9.9 ± 4.8 ng/mL | AUC tau at 24 h [2, 13]: 80.6 ± 31.4 ng·h/mL | Cmax at 24 h [2, 13]: 25.9 ± 8.5 ng/mL | Cmax at 312 h ([2]; human, blood, 10 mg q.d. oral, Day 13, Mean ± SD): 21.8 ± 7.9 ng/mL | AUC tau at 672 h [2, 14]: 90.9 ± 35.4 ng·h/mL | Cmax at 672 h [2, 14]: 24 ± 9.2 ng/mL | Cmax at 24 h ([2]; human, blood, 20 mg b.i.d. oral, Day 1, Mean ± SD): 41.3 ± 16 ng/mL | AUC tau at 24 h ([2]; human, blood, 20 mg q.d. oral, Day 1, Mean ± SD): 173 ± 56 ng·h/mL | AUC tau at 312 h [2, 15]: 253 ± 40.1 ng·h/mL | Cmax at 312 h [2, 15]: 55.3 ± 21.4 ng/mL | AUC tau at 672 h [2, 16]: 258 ± 65.9 ng·h/mL | Cmax at 672 h [2, 16]: 58.3 ± 25.4 ng/mL | AUC tau at 24 h [2, 17]: 206 ± 64 ng·h/mL | Cmax at 24 h [2, 17]: 49.1 ± 21.6 ng/mL | AUC tau at 312 h [2, 18]: 295 ± 60.1 ng·h/mL | Cmax at 312 h [2, 18]: 54.5 ± 27 ng/mL | AUC tau at 672 h [2, 19]: 281 ± 32.8 ng·h/mL | Cmax at 672 h [2, 19]: 41.1 ± 8.4 ng/mL | AUC(0-t) at 24 h ([2]; human, blood, psoriatic patients, oral, read-out: AUC(0-24) associated with a significant clinical response in the target epithelial tissue): ≥ 400 ng·h/mL | Trough concentrations associated with a significant clinical response in the target epithelial tissue ([2]; human, in vivo, po): ≥ 7 ng/mL | eosinophil count in the lung and eosinophil peroxidase activity [3]: able to reduce | efficacy compared with FK506 [4]: equipotent | clinical effect on psoriasis ([5]; oral 60 mg (30 mg b.i.d), 4-week study, 8 treated patients): reduction of psoriasis | tolerability in man ([5]; oral dosing up to 60 mg (or 30 mg b.i.d.) over 28 days): well-tolerated | acute phase response (serum haptoglobin) in established IBD [6]: inhibits the ongoing acute phase response | blood and spleen neutrophilia in established/ongoing colitis [6]: strongly inhibits | loss of BW in established/ongoing colitis [6]: highly-effective in reversing the loss of BW | factor by which it permeates less through skin than FK506 [7]: 9 | factor by which it permeates less through skin than corticosteroids [7]: 60-120
